Experimental data: PubChem BioAssay AID1259411 (Chemical Carcinogenesis Research Information System (CCRIS), 2018)
Calls of active or inactive are those of the source. The rule behind the calls is not given here.

Tested on: rodent carcinogenicity bioassays, tumor incidence
Experiment: CCRIS carcinogenicity studies
In short: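 NCI-built, expert-reviewed records of carcinogenicity and related test outcomes (mutagenicity, tumor promotion/inhibition) compiled from published and report sources, historical span 1985-2011, not updated.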

CC(=O)CN(CC(C)O)N=O (stereo not drawn)
carcinogen call (Species: RAT, Strain/Sex: F344/FEMALE, Route: INTRAVESICULAR, Dose: 0, 2.5 MG IN 0.2 ML ETHANOL:DEIONIZED WATER (1:3) 2/WK FOR 22 WK (TOTAL DOSE 0.7 MMOL) (STUDY DURATION: LIFESPAN), Tumor Site: Type of Lesion: BLADDER: TUMOR, LIVER: TUMOR): active; positive
carcinogen call (Species: RAT, Strain/Sex: F344/FEMALE, Route: ORAL, Dose: 0, 55, 220 MG/L DRINKING WATER 5 D/WK FOR 40, 21 WK (TOTAL DOSE 220; 460 MG) (STUDY DURATION: LIFESPAN), Dose: 0, 55, 220 MG/L DRINKING WATER 5 D/WK FOR 40, 21 WK (TOTAL DOSE 220; 460 MG) (STUDY DURATION: LIFESPAN), Tumor Site: Type of Lesion: LIVER: CARCINOMA, ANGIOSARCOMA, LUNG: TUMOR, ESOPHAGUS: CARCINOMA, PAPILLOMA, NASAL CAVITY: TUMOR, Tumor Site: Type of Lesion: LIVER: CARCINOMA, ANGIOSARCOMA, LUNG: TUMOR, ESOPHAGUS: CARCINOMA, PAPILLOMA, NASAL CAVITY: TUMOR): active; positive

ClC(Br)Br
carcinogen call (Species: MOUSE, Strain/Sex: B6C3F1/FEMALE, Route: GAVAGE, Dose: 0, 50, 100 MG/KG IN CORN OIL 5 D/WK FOR 105 WK (STUDY DURATION: 105 WK), Dose: 0, 50, 100 MG/KG IN CORN OIL 5 D/WK FOR 105 WK (STUDY DURATION: 105 WK), Tumor Site: Type of Lesion: LIVER: HEPATOCELLULAR ADENOMA, HEPATOCELLULAR ADENOMA OR CARCINOMA): active; positive
carcinogen call (Species: MOUSE, Strain/Sex: B6C3F1/MALE, Route: GAVAGE, Dose: 0, 50, 100 MG/KG IN CORN OIL 5 D/WK FOR 105 WK (STUDY DURATION: 105 WK), Dose: 0, 50, 100 MG/KG IN CORN OIL 5 D/WK FOR 105 WK (STUDY DURATION: 105 WK), Tumor Site: Type of Lesion: LIVER: HEPATOCELLULAR CARCINOMA, HEPATOCELLULAR ADENOMA OR CARCINOMA): equivocal
carcinogen call (Species: RAT, Strain/Sex: F344/FEMALE, Route: GAVAGE, Dose: 0, 40, 80 MG/KG IN CORN OIL 5 D/WK FOR 104 WK (STUDY DURATION: 105 WK), Dose: 0, 40, 80 MG/KG IN CORN OIL 5 D/WK FOR 104 WK (STUDY DURATION: 105 WK)): inactive; negative
carcinogen call (Species: RAT, Strain/Sex: F344/MALE, Route: GAVAGE, Dose: 0, 40, 80 MG/KG IN CORN OIL 5 D/WK FOR 104 WK (STUDY DURATION: 105 WK), Dose: 0, 40, 80 MG/KG IN CORN OIL 5 D/WK FOR 104 WK (STUDY DURATION: 105 WK)): inactive; negative

CNC(=S)N(C)C
carcinogen call (Species: MOUSE, Strain/Sex: B6C3F1/FEMALE, Route: ORAL, Dose: 0, 500, 1000 PPM IN DIET, Dose: 0, 500, 1000 PPM IN DIET): inactive; negative
carcinogen call (Species: MOUSE, Strain/Sex: B6C3F1/MALE, Route: ORAL, Dose: 0, 500, 1000 PPM IN DIET, Dose: 0, 500, 1000 PPM IN DIET): inactive; negative
carcinogen call (Species: RAT, Strain/Sex: F344/FEMALE, Route: ORAL, Dose: 0, 250, 500 PPM IN DIET, Dose: 0, 250, 500 PPM IN DIET, Tumor Site: Type of Lesion: THYROID GLAND: FOLLICULAR CELL CARCINOMA OR ADENOMA): active; positive
carcinogen call (Species: RAT, Strain/Sex: F344/MALE, Route: ORAL, Dose: 0, 250, 500 PPM IN DIET, Dose: 0, 250, 500 PPM IN DIET): inactive; negative

O=P1(N(CCCl)CCCl)NCCCO1 (stereo not drawn)
carcinogen call (Species: FISH, Strain/Sex: SHASTA RAINBOW TROUT/MALE, FEMALE, Route: ORAL, Dose: 0, 200 PPM IN DIET FOR 18 MO (STUDY DURATION: 18 MO)): inactive; negative
carcinogen call (Species: HUMAN, Route: ORAL, Tumor Site: Type of Lesion: URINARY BLADDER): active; positive
carcinogen call (Species: MOUSE, Strain/Sex: NMRI/FEMALE, Route: SUBCUTANEOUS, Dose: 0, 13, 26 MG/KG IN SALINE 1/WK FOR LIFETIME (STUDY DURATION: LIFETIME), Dose: 0, 13, 26 MG/KG IN SALINE 1/WK FOR LIFETIME (STUDY DURATION: LIFETIME), Tumor Site: Type of Lesion: LYMPHATIC SYSTEM: MALIGNANT LEUKEMIA): active; positive
carcinogen call (Species: MOUSE, Strain/Sex: NMRI/FEMALE, Route: SUBCUTANEOUS, Dose: 26 MG/KG 1/WK FOR 52 WK, Tumor Site: Type of Lesion: MAMMARY GLAND: CARCINOMA, MULTIPLE SITES: CARCINOMA, SARCOMA): active; positive
carcinogen call (Species: RAT, Strain/Sex: BR46/MALE, Route: INTRAVENOUS, Dose: 15 MG/KG 1/WK OR 5 DOSES OF 33 MG/KG EVERY 2 WK, Tumor Site: Type of Lesion: MULTIPLE SITES): active; positive
carcinogen call (Species: RAT, Strain/Sex: SPRAGUE-DAWLEY/MALE,FEMALE, Route: ORAL, Dose: 0.31, 0.63, 1.25, 2.5 MG/KG 5/WK, Dose: 0.31, 0.63, 1.25, 2.5 MG/KG 5/WK, Tumor Site: Type of Lesion: URINARY BLADDER: PAPILLOMA, TRANSITIONAL CELL CARCINOMA): active; positive
carcinogen call (Species: RAT, Strain/Sex: SPRAGUE-DAWLEY/MALE, Route: INTRAVENOUS, Dose: 13 MG/KG 1/WK, Tumor Site: Type of Lesion: MULTIPLE SITES): active; positive

CCCCCCCCCCCCc1ccccc1
carcinogen call (Species: MOUSE, Strain/Sex: HR/HR OSLO/MALE, FEMALE, Route: DERMAL, Dose: 0, 16, 80% IN ACETONE 2/WK FOR 78 WK (STUDY DURATION: 80 WK), Dose: 0, 16, 80% IN ACETONE 2/WK FOR 78 WK (STUDY DURATION: 80 WK), Tumor Site: Type of Lesion: SKIN: TUMOR): active; positive

Nc1ccc(Cl)cc1N
carcinogen call (Species: MOUSE, Strain/Sex: B6C3F1/FEMALE, Route: ORAL, Dose: 0, 0.7, 1.4% TWA, IN DIET FOR 78 WK (STUDY DURATION: 96-97 WK), Dose: 0, 0.7, 1.4% TWA, IN DIET FOR 78 WK (STUDY DURATION: 96-97 WK), Tumor Site: Type of Lesion: LIVER: HEPATOCELLULAR CARCINOMA, HEPATOCELLULAR ADENOMA OR CARCINOMA): active; positive
carcinogen call (Species: MOUSE, Strain/Sex: B6C3F1/MALE, Route: ORAL, Dose: 0, 0.7, 1.4% TWA, IN DIET FOR 78 WK (STUDY DURATION: 95-97 WK), Dose: 0, 0.7, 1.4% TWA, IN DIET FOR 78 WK (STUDY DURATION: 95-97 WK), Tumor Site: Type of Lesion: LIVER: HEPATOCELLULAR CARCINOMA, HEPATOCELLULAR ADENOMA OR CARCINOMA): active; positive
carcinogen call (Species: RAT, Strain/Sex: F344/FEMALE, Route: ORAL, Dose: 0, 0.5, 1.0% IN DIET FOR 78 WK (STUDY DURATION: 106 WK), Dose: 0, 0.5, 1.0% IN DIET FOR 78 WK (STUDY DURATION: 106 WK), Tumor Site: Type of Lesion: URINARY BLADDER: PAPILLARY CARCINOMA OR TRANSITIONAL CELL CARCINOMA, PAPILLARY CARCINOMA OR TRANSITIONAL CELL CARCINOMA): active; positive
carcinogen call (Species: RAT, Strain/Sex: F344/MALE, Route: ORAL, Dose: 0, 0.5, 1.0% IN DIET FOR 78 WK (STUDY DURATION: 105-106 WK), Dose: 0, 0.5, 1.0% IN DIET FOR 78 WK (STUDY DURATION: 105-106 WK), Tumor Site: Type of Lesion: URINARY BLADDER: TRANSITIONAL CELL CARCINOMA, PAPILLOMA (NOS) OR TRANSITIONAL CELL PAPILLOMA OR TRANSITIONAL CELL CARCIN): active; positive

CN(C)C(=O)Nc1ccc(Cl)c(Cl)c1
carcinogen call (Species: MOUSE, Strain/Sex: SWISS/FEMALE, Route: DERMAL, Dose: 0, 250 MG/KG IN 100 µL DMSO TO INTERSCAPULAR REGION 3/WK FOR 3 WK FOLLOWED 1 WK LATER BY 100 µL ACETONE 3/WK FOR DURATIO): inactive; negative
carcinogen call (Species: Mouse, Strain/Sex: Bor strain NMRI SPF HAN/Female (60/Group), Route: Oral, Dose: 0, 25, 250, 2500 ppm 98.7% diuron in diet for 24 mo, study duration 24 mo, Dose: 0, 25, 250, 2500 ppm 98.7% diuron in diet for 24 mo, study duration 24 mo, Tumor Site: Type of Lesion: Mammary gland: Adenocarcinoma (highest dose only)): active; positive. (ca department of pesticide regulation reviewer evaluates as a possibl
carcinogen call (Species: Mouse, Strain/Sex: Bor strain NMRI SPF HAN/Male (60/Group), Route: Oral, Dose: 0, 25, 250, 2500 ppm 98.7% diuron in diet for 24 mo, study duration 24 mo, Dose: 0, 25, 250, 2500 ppm 98.7% diuron in diet for 24 mo, study duration 24 mo): inactive; negative
carcinogen call (Species: Rat, Strain/Sex: Wistar/Female (50/Group), Route: Oral, Dose: 0, 25, 250, 2500 ppm 98.7% diuron in diet for 2 yr, study duration 2 yr, Dose: 0, 25, 250, 2500 ppm 98.7% diuron in diet for 2 yr, study duration 2 yr, Tumor Site: Type of Lesion: Urinary bladder: Transitional epithelial cell carcinoma (highest dose only)): active; positive. (ca department of pesticide regulation reviewer evaluates as a possibl
carcinogen call (Species: Rat, Strain/Sex: Wistar/Male (50/Group), Route: Oral, Dose: 0, 25, 250, 2500 ppm 98.7% diuron in diet for 2 yr, study duration 2 yr, Dose: 0, 25, 250, 2500 ppm 98.7% diuron in diet for 2 yr, study duration 2 yr, Tumor Site: Type of Lesion: Urinary bladder: Transitional epithelial cell carcinoma (highest dose only). Kidney: Epithelial cell tumors in renal pel): active; positive. (ca department of pesticide regulation reviewer evaluates as a possibl

Cc1ccccc1N=O
carcinogen call (Species: RAT, Strain/Sex: F344/MALE, Route: ORAL, Dose: 3.38 G/KG- DIET FOR 72 WK (TOTAL DOSE 0.21 MOL/RAT), Tumor Site: Type of Lesion: LIVER: HEPATOMA, URINARY BLADDER: PAPILLOMA, PERITONEAL CAVITY: MESOTHELIOMA, SARCOMA, SPLEEN: FIBROMA, INTEGUMENTARY SY, Tumor Site: Type of Lesion: LIVER: HEPATOMA, URINARY BLADDER: PAPILLOMA, PERITONEAL CAVITY: MESOTHELIOMA, SARCOMA, SPLEEN: FIBROMA, INTEGUMENTARY SY): active; positive
